Test: recombinant barcode read abundance after kanamycin selection (control-corrected) (log10(CPM+1)); higher = more efficient recombination; sequences stand for … in AGTGCAGAGAAAATCGGCCAGTTTTCTCTGCCTGCAGTCCGCATGCCGT…AGATTTATGCAGCGGACTGCCTTTCTCCCAAAGTGATAAACCGGACAGTATCATGGACCGGTTTTCCCGGTAATCCGTATTTGCAAGGTTGGTTTCACT; site = the 11-nt target
Summary of the method: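 Values are log10(CPM+1) from a pooled E. coli screen of targets paired with IS621 bridge RNA target-binding loops. Recombination efficiency here means counts per million of recombinant-junction barcodes, averaged and control-corrected. Plates were chloramphenicol/ampicillin LB agar for the control and chloramphenicol/ampicillin/kanamycin with 0.1 mM IPTG, two replicates each.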
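Note: IS621 recombinase and bridge RNA in Escherichia coli cells.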

In order of falling “recombinant barcode read abundance (log10)” value:
1. GGCGTGCCTTGGGTTCTAACCTGTTGCGT (site GGCGTGCCTAC)  2.95
2. CTTGGACCTTGGGTTCTAACCTGTTGCAG (site CTTGGACCTCT)  2.55
3. TCGGATACTTGGGTTCTAACCTGTTGCGT (site TCGGATACTAC)  2.05
4. GAGGGTGCTTGGGTTCTAACCTGTTGCCT (site GAGGGTGCTAG)  1.89
5. CCAGTCACTTGGGTTCTAACCTGTTGCCT (site CCAGTCACTAG)  1.88
6. CGAGGTACTTGGGTTCTAACCTGTTGCAT (site CGAGGTACTAT)  1.87
7. TGACGTCCTTGGGTTCTAACCTGTTGCGT (site TGACGTCCTAC)  1.72
8. CCTGGTCCTTGGGTTCTAACCTGTTGCCT (site CCTGGTCCTAG)  1.56
9. GTGTCACCTTGGGTTCTAACCTGTTGCCT (site GTGTCACCTAG)  1.52
10. CATCGGACTTGGGTTCTAACCTGTTGCAG (site CATCGGACTCT)  1.48
11. CAGAAGTCTTGGGTTCTAACCTGTTGCTT (site CAGAAGTCTAA)  1.44
12. CAACCGCCTTGGGTTCTAACCTGTTGCCT (site CAACCGCCTAG)  1.43
13. GACCACTCTTGGGTTCTAACCTGTTGCCT (site TACCACTCTAG)  1.42
14. GATGGGTCTTGGGTTCTAACCTGTTGCCT (site GATGGGTCTAG)  1.37
15. CCACACTCTTGGGTTCTAACCTGTTGCCT (site CCACACTCTAG)  1.27
16. ATAGCTACTTGGGTTCTAACCTGTTGCCT (site ATAGCTACTAG)  1.2
17. CAATGGACTTGGGTTCTAACCTGTTGCCT (site CAATGGACTAG)  1.12
18. AACATCACTTGGGTTCTAACCTGTTGCCG (site AACATCACTCG)  1.08
19. GTAAATCCTTGGGTTCTAACCTGTTGCCT (site GTAAATCCTAG)  1.01
20. GTAACCTCTTGGGTTCTAACCTGTTGCCA (site GTAACCTCTAG)  0.904
21. GTAACCTCTTGGGTTCTAACCTGTTGCCG (site GTAACCTCTAG)  0.861
22. ACATAGACTTGGGTTCTAACCTGTTGCGC (site ACACAGACTGC)  0.858
23. CGGTCGCCTTGGGTTCTAACCTGTTGCAT (site CGGTCGCCTAT)  0.839
24. ACGACCGCTTGGGTTCTAACCTGTTGCCT (site ACGACCGCTAG)  0.804
25. ATCGGATCTTGGGTTCTAACCTGTTGCCT (site ATCGGATCTAG)  0.678
26. CGATCACCTTGGGTTCTAACCTGTTGCCT (site TTCGGCTCTTA)  0.665
27. AGCCTGGCTTGGGTTCTAACCTGTTGCCT (site AGCCTGGCTAG)  0.594
28. CAACCTACTTGGGTTCTAACCTGTTGCCT (site CAACCTACTAG)  0.586
29. GGCTAGTCTTGGGTTCTAACCTGTTGCTT (site GGCTAGTCTAA)  0.561
30. CCGGTAACTTGGGTTCTAACCTGTTGCCT (site CCGGTAACTAG)  0.45
31. CCGGTAGCTTGGGTTCTAACCTGTTGCCA (site CCGGTAGCTTG)  0.443
32. GTAACCGCTTGGGTTCTAACCTGTTGCCT (site GTTACCGCTAG)  0.432
33. ATTGCTCCTTGGGTTCTAACCTGTTGCCT (site ATTGCTCCTAG)  0.416
34. CTTGAATCTTGGGTTCTAACCTGTTGCCT (site CTTGAATCTAG)  0.379
35. CTACTAACTTGGGTTCTAACCTGTTGCGT (site CTACTAACTAG)  0.339
36. TAGGTTCCTTGGGTTCTAACCTGTTGCAT (site TAGGTCCCTAT)  0.335
37. GTTGGCGCTTGGGTTCTAACCTGTTGCCT (site GTAGGCGCTAG)  0.276
38. GAGTCGCCTTGGGTTCTAACCTGTTGCCT (site GAGTCGCCTAG)  0.263
39. GTGTACCCTTGGGTTCTAACCTGTTGCGG (site GTGTACCCTTC)  0.253
40. GGTCATACTTGGGTTCTAACCTGTTGCCT (site GGTCATTCTAG)  0.246
41. AGGTAACCTTGGGTTCTAACCTGTTGCCT (site CGGTAACCTAG)  0.23
42. TCGAACCCTTGGGTTCTAACCTGTTGCGG (site TCCAACCCTCC)  0.168
43. ATATTTCCTTGGGTTCTAACCTGTTGCCT (site AGATTTCCTAG)  0.163
44. AGACTTCCTTGGGTTCTAACCTGTTGCTT (site AGACATCCTAA)  0.158
45. AAGTCCTCTTGGGTTCTAACCTGTTGCTT (site AAGGCCTCTAA)  0.153
46. CATTCAACTTGGGTTCTAACCTGTTGCCT (site CATTCAACTAG)  0.133
47. GAGCTACCTTGGGTTCTAACCTGTTGCCA (site GAGCTACCTGG)  0.13
48. ATCGCTCCTTGGGTTCTAACCTGTTGCCT (site AACGCTCCTAG)  0.128
49. ATAAATCCTTGGGTTCTAACCTGTTGCCT (site CTAAATCCTAG)  0.126
50. CTGTACTCTTGGGTTCTAACCTGTTGCCT (site CTGCACTCTTG)  0.126
51. GAGGGTGCTTGGGTTCTAACCTGTTGCCT (site GAGGGTTCTAT)  0.121
52. GGGCCCGCTTGGGTTCTAACCTGTTGCGG (site GGACGCGCTCC)  0.111
53. TCTATGTCTTGGGTTCTAACCTGTTGCCT (site TCTATGTCTAG)  0.107
54. TATTCTACTTGGGTTCTAACCTGTTGCGG (site TATTCTACTAC)  0.0937
55. TCGCACACTTGGGTTCTAACCTGTTGCTA (site TCGCACTCTTA)  0.0853
56. AGGTCAACTTGGGTTCTAACCTGTTGCCG (site AGGTCAACTCG)  0.0699
57. GTAAAGTCTTGGGTTCTAACCTGTTGCCA (site CTAAAGTCTTG)  0.0579
58. AGGGGATCTTGGGTTCTAACCTGTTGCCT (site AGTGGAGCTAG)  0.0518
59. GCCATCTCTTGGGTTCTAACCTGTTGCCT (site GCCATCTCTAG)  0.0476
60. CAAACCTCTTGGGTTCTAACCTGTTGCAC (site TCTTAGACTTC)  0.0456
61. ACTGATGCTTGGGTTCTAACCTGTTGCCT (site ACTGATCCTAG)  0.0449
62. TTCTGTCCTTGGGTTCTAACCTGTTGCCT (site TTCTATCCTAG)  0.0361
63. CTTTCCTCTTGGGTTCTAACCTGTTGCCT (site CCTTCCTCTAG)  0.0332
64. CTAAATCCTTGGGTTCTAACCTGTTGCCT (site TTAAATCCTAG)  0.0182
65. TACCGGTCTTGGGTTCTAACCTGTTGCTT (site TACCTGTCTAA)  0.00501
66. CATCGATCTTGGGTTCTAACCTGTTGCCT (site CATCTATCTAG)  0
